# Results from US8598342B2, “Methods and compounds for antimicrobial intervention” (President and Fellows of Harvard College, priority 2008, dated 2013).
# “Also recorded” adds a separate entry of the source. Read-outs that look alike come from different tables or passages of the source.
# Key:
# [1] = system: wildtype S. aureus RN4220; experiment: MIC / growth inhibition of wildtype S. aureus RN4220 (optical density); assay type: cell-based; details: Staphylococcus aureus
# Description: (§1) (A) Targocil MIC data for a panel of Gram-positive strains, including MRSA clinical isolates B5271 and 5340A. Growth was monitored in triplicate after 12 h at 28° C. using optical density. (B) Two dimensional drug interaction analysis between tunicamycin and targocil grown for 18 h at 30° C. […] At higher concentrations, tunicamycin is toxic because it inhibits cell wall biosynthesis. […] Varying concentrations of drug were added to […] of S. aureus RN4220 after 5 h and cell count was monitored over time at 30° C. […] Cells were grown at 28° C. for 12 h and monitored for growth using optical density (OD600). Data were normalized to the DMSO controls for each strain. (E) Two classes of mutants were examined: phage resistant (m1 3) and phage sensitive (m4-5).
# A library of 55,000 small molecules was screened in duplicate at a concentration of ˜40 μM against S. aureus RN4220 and the corresponding ΔtarO strain using optical density to monitor growth. We obtained 45 initial hits and confirmed three lead compounds that inhibited the growth of the wildtype strain but had no activity against the ΔtarO strain. […] (FIG. 16A and FIG. 18) (Lazarevic V, Abellan F X, Moller S B, Karamata D, & Mauel C (2002) Microbiology-Sgm 148:815-824)
# On the night before screening, a single colony of each strain was grown in TSB (Cm 10). On the day of screening, 384 well plates (Corning® 3710) were filled with […] of TSB (Cm 10). […]
# The following day the plates were read using a Perkin Elmer Envision plate reader for both OD600 and fluorescence at the appropriate wavelength for Gfp ([…]) and Mcherry ([…]). Data were collected and analyzed to identify compounds that killed the wildtype strain but not the ΔtanO mutant. […]
# For a secondary screen, hits from the primary screen were evaluated against wildtype and the ΔtarO mutant as described above, but the compound was investigated using a four point dose-response curve starting at a concentration of 50 μM and doing two-fold serial dilutions. […]
# [2] = system: S. aureus strains, including five MRSA strains; experiment: In vitro MIC against a panel of S. aureus strains including MRSA; assay type: cell-based, Staphylococcus aureus
# Description: as §1
# (G. Bou, (2007) Methods Mol Biol 391, 29)
# S. aureus TarD = target: T1, S. aureus TarD (Staphylococcus aureus, UniProt Q2G2X2); experiment: In vitro enzyme inhibition assay, TarD (radiometric); assay type: biochemical; details: targocil 50 μg/mL; enzyme 200 nM
# T1 construct: made in house
# T1 sequence (Q2G2X2 1-132): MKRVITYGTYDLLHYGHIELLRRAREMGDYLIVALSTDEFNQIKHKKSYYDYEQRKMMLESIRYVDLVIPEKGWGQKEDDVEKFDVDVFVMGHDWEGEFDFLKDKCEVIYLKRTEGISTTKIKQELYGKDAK
# Description: S. aureus TarB, D, F, I, and L were cloned, overexpressed and purified as described previously (S. Brown, Y. H. Zhang, S. Walker, Chemistry & Biology 15, 12, Jan. 2008.) Radiometric in vitro assays were run to test the inhibitory effects of targocil on Tar B, D, F, and L, while TarI was assayed for targocil inhibition using an HPLC assay using conditions similar to those previously reported (ibid). See below for exact reaction conditions. […] In each case, a reaction with no targocil served as a negative control (active enzymatic reaction) and a reaction with heat-treated enzyme served as a positive control (no enzymatic reaction). Targocil was incubated with all reaction components except the substrates at room temperature. After 10 minutes, substrates were added and the reactions were allowed to proceed for 60 minutes. The reactions were quenched with DMF and the products were imaged/monitored as previously described (ibid).
# TarD in vitro inhibition assay protocol and data. Each 3 μL reaction contained 50 mM HEPES pH 8, 10 mM MgCl2, 1 mM DTT, 1 μM [14C]-glycerol-3-phosphate, 9 μM glycerol-3-phosphate, 20 μM CTP, 200 nM TarD. The reactions were quenched with 3 μL DMF, and 2 μL of the reaction mixture were combined with 2 μL 2× loading dye (40% glycerol, 0.2% bromophenol blue) and loaded onto a 20% acrylamide/0.25M TBE gel as described previously (ibid.). […]
# S. aureus TarJ = target: T2, S. aureus TarJ (Staphylococcus aureus, UniProt Q2G1B9); experiment: In vitro enzyme inhibition assay, TarJ; assay type: biochemical; details: targocil 50 μg/mL
# T2 sequence (Q2G1B9 1-341): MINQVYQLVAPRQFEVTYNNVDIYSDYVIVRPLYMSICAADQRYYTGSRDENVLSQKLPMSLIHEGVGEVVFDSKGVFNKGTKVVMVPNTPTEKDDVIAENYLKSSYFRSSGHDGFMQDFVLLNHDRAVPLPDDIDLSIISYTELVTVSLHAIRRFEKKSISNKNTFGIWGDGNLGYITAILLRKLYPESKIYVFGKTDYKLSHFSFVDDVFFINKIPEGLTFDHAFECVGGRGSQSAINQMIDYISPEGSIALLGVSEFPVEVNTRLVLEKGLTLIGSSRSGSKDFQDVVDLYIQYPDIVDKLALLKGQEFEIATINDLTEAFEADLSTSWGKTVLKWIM
# [3] = system: S. aureus strain expressing B. subtilis 168 TagGH; experiment: Growth of S. aureus RN4220 expressing B. subtilis 168 tagGH; assay type: cell-based, Staphylococcus aureus; details: 28° C., 12 h, OD600
# Description: as §1
# [4] = system: IPTG-inducible tarO strain of S. aureus; experiment: Growth of the IPTG-inducible tarO strain as a function of targocil concentration; assay type: cell-based, Staphylococcus aureus
# Excerpt: (Top) Schematic of the IPTG-inducible tarO operon. […] Data were normalized to the DMSO controls for each strain.
compound,measurement,setting,value
"CCN(CC)c1nc2c(S(=O)(=O)c3ccccc3)nnn2c2ccc(Cl)cc12 [7-chloro-N,N-diethyl-3-(phenylsulfonyl)-[1,2,3]triazolo[1,5-a]quinazolin-5-amine]",MIC,[1]; read-out: minimum inhibitory concentration (MIC),1.3 µg/mL
same,MIC,"[1]; result of the WTA inhibitor screen, read-out: minimum inhibitory concentration",~3 µM
same,MIC,"[1]; wildtype S. aureus RN4220, read-out: minimum inhibitory concentration (MIC)",3 µM
same,effectiveness against strains of S. aureus,"[2]; RN4220, RN450, Newman strain, Wood strain",effective against numerous strains of S. aureus
same,in vitro MIC values against all tested S. aureus strains,[2]; including five MRSA strains,low μg/mL range
same,species selectivity of antibiotic activity,[2]; panel of Gram-positive strains,selective for S. aureus
same,inhibition of TarD,S. aureus TarD,None of these enzymes was inhibited
same,inhibition of TarJ,S. aureus TarJ,None of these enzymes was inhibited
same,resistance to targocil of strain expressing B. subtilis 168 TagGH,[3],fully resistant; also recorded: complete resistance
same,"effect on cell growth, tarO not induced",[4]; in the absence of IPTG,no effect
same,"effect on cell growth, tarO induced",[4]; in the presence of IPTG,inhibited cell growth
